Here are results for eight compounds from ChEMBL document CHEMBL5441381, “ASAP - In vitro antiviral effect” (2024).

In general, EC50 refers to the midpoint of the concentration-response curve. Low readings indicate higher potency in that assay, high ones lower potency in that assay. The term EC90 denotes the concentration needed for an effect of 90%. A low value points to an effect from little substance.

The test system of assay [1] is SARS-CoV-2. Briefly: (§1) Functional immunofluorescence assay to measure dose dependent changes in antiviral-drug inhibitory efficacy against hCoV-19/USA-WA1/2020 in HeLa-ACE2 cells which are seeded prior to drug treatment, then infected with hCoV-19/USA-WA1/2020. Cells are fixed with 10 % formaldehyde, washed with PBS, permeabilized with permeabilization buffer, then washed with wash buffer. The cells are incubated with nucleoprotein primary antibody IC7C7. Following primary staining, cells are washed with wash buffer and incubated in a solution of with Alexa fluor 488 and DAPI. Infected and uninfected cells are visualized and analyzed by Gen5 software. The assay has been performed by Icahn School of Medicine at Mount Sinai. In kind it is organism-based, Homo sapiens.

In assay [2] the test system is SARS-CoV-2. The assay is described as §1, with “iPSC-Pneumocyte” for “HeLa-ACE2”, “to” for “to drug”. In kind it is organism-based, Homo sapiens.
Where [3] appears, read: Severe acute respiratory syndrome coronavirus 2, HeLa-ACE2.
Where [4] appears, read: Severe acute respiratory syndrome coronavirus 2, Pneumocyte.

Each structure is given as a SMILES string. Values joined by “and” are separate entries in the source; they are usually repeats but may differ in a detail not shown here. Equal values may be shown once.

As for `CC(C)[C@@H](Nc1ncnc2[nH]c(-c3cnn(CC(N)=O)c3)cc12)c1ccc2c(n1)OCCO2`, the EC50 in the assay with SARS-CoV-2 [1] (setting [3]) is above 20 µM; with SARS-CoV-2 [2] (setting [4]), above 50 µM. In addition, the EC90 in the assay with SARS-CoV-2 [1] (Severe acute respiratory syndrome coronavirus 2, HeLa-ACE2, Maximum measured 122.738 %, Minimum measured 101.22 %) is above 20 µM; with SARS-CoV-2 [2] (Severe acute respiratory syndrome coronavirus 2, Pneumocyte, Baseline response 0 %, Hill slope -0.097, Maximum measured 94.962 %, Maximum response 100 %, Minimum measured 56.467 %, R squared 0.078) it was above 50 µM.

Consider `CC(C)[C@@H](Nc1ncnc2[nH]ccc12)c1ccc2c(c1)S(=O)(=O)CCC2`, for which the EC90 was above 50 µM in the assay with SARS-CoV-2 [1] (Severe acute respiratory syndrome coronavirus 2, HeLa-ACE2, Baseline response 0 %, Hill slope -1.838, Maximum measured 112.988 %, Maximum response 100 %, Minimum measured 76.031 %, R squared 0.586); above 20 µM with SARS-CoV-2 [1] (Severe acute respiratory syndrome coronavirus 2, HeLa-ACE2, Baseline response 0 %, Hill slope -2.172, Maximum measured 117.108 %, Maximum response 100 %, Minimum measured 66.698 %, R squared 0.616); above 50 µM with SARS-CoV-2 [2] (Severe acute respiratory syndrome coronavirus 2, Pneumocyte, Baseline response 0 %, Hill slope -1.893, Maximum measured 187.741 %, Maximum response 100 %, Minimum measured 35.01 %, R squared 0.158); above 50 µM with SARS-CoV-2 [2] (Severe acute respiratory syndrome coronavirus 2, Pneumocyte, Maximum measured 138.005 %, Minimum measured 85.609 %). Moreover, the EC50 with SARS-CoV-2 [1] (hela-ace2) is above 50 µM; with SARS-CoV-2 [2] (setting [4]), above 50 µM; with SARS-CoV-2 [2] (pneumocyte), 29.9 µM.

`CNC(=O)Cn1cc(-c2cc3c(N[C@H](c4ccc5c(c4)S(=O)(=O)CCC5)C(C)C)ncnc3[nH]2)cn1`: the figures for the EC50 with SARS-CoV-2 [1] (setting [3]) and in the assay with SARS-CoV-2 [2] (setting [4]) were above 20 µM and above 50 µM, respectively. Also, the EC90 in the assay on SARS-CoV-2 [1] (Severe acute respiratory syndrome coronavirus 2, HeLa-ACE2, Baseline response 0 %, Hill slope 0.543, Maximum measured 108.143 %, Maximum response 100 %, Minimum measured 92.194 %, R squared 0.052) is above 20 µM; in the assay on SARS-CoV-2 [2] (Severe acute respiratory syndrome coronavirus 2, Pneumocyte, Baseline response 0 %, Hill slope -0.24, Maximum measured 106.027 %, Maximum response 100 %, Minimum measured 60.326 %, R squared 0.31) it was above 50 µM.

Regarding `Cn1ncc(-c2cc3c(N[C@@H](c4ccc5c(c4)OCCO5)C(C)(C)C)ncnc3[nH]2)c1C#N`, the EC90 in the assay on SARS-CoV-2 [1] (Baseline response 0 %, EC90 CI (lower) 0.293 uM, EC90 CI (upper) 0.492 uM, Hill slope -2.031, Maximum measured 93.387 %, Maximum response 100 %, Minimum measured 1.413 %, R squared 0.981) was 3.3 µM; in the assay on SARS-CoV-2 [1] (Severe acute respiratory syndrome coronavirus 2, HeLa-ACE2, Baseline response 0 %, EC90 CI (lower) 0.423 uM, EC90 CI (upper) 0.632 uM, Hill slope -3.108, Maximum measured 91.316 %, Maximum response 100 %, Minimum measured 1.9 %, R squared 0.978), 2.12 µM; in the assay with SARS-CoV-2 [2] (Severe acute respiratory syndrome coronavirus 2, Pneumocyte, Baseline response 0 %, EC90 CI (lower) 1.944 uM, EC90 CI (upper) 9.946 uM, Hill slope -3.954, Maximum measured 131.986 %, Maximum response 100 %, Minimum measured 2.165 %, R squared 0.772), 13.4 µM. For the same compound, the EC50 in the assay on SARS-CoV-2 [1] (setting [3]) came to 1.05 µM; in the assay with SARS-CoV-2 [1] (hela-ace2) it was 1.12 µM; in the assay with SARS-CoV-2 [2] (setting [4]), 7.67 µM.

Take `CC(C)[C@@H](Nc1ncnc2[nH]c(-c3cnn(CC(N)=O)c3)cc12)c1ccc2c(c1)OCCO2`: the figures for the EC50 in the assay with SARS-CoV-2 [1] (setting [3]) and with SARS-CoV-2 [2] (setting [4]) were above 50 µM and 37.1 µM, respectively. The EC90 in the assay with SARS-CoV-2 [1] (Severe acute respiratory syndrome coronavirus 2, HeLa-ACE2, Baseline response 0 %, Hill slope -10.038, Maximum measured 122.799 %, Maximum response 100 %, Minimum measured 73.654 %, R squared 0.191) was above 50 µM; in the assay with SARS-CoV-2 [2] (Severe acute respiratory syndrome coronavirus 2, Pneumocyte, Baseline response 0 %, Hill slope -4.011, Maximum measured 96.462 %, Maximum response 100 %, Minimum measured 23.083 %, R squared 0.242) it was above 50 µM.

Take `Cc1ncc(-c2cc3c(N[C@@H](c4ccc5c(c4)OCCO5)C(C)C)ncnc3[nH]2)cn1`: the figures for the EC50 with SARS-CoV-2 [1] (setting [3]), in the assay on SARS-CoV-2 [1] (hela-ace2) and in the assay with SARS-CoV-2 [2] (setting [4]) were 4.51 µM, 4.51 µM and 15.7 µM, respectively. Moreover, the EC90 in the assay on SARS-CoV-2 [1] (Severe acute respiratory syndrome coronavirus 2, HeLa-ACE2, Baseline response 0 %, Hill slope -0.659, Maximum measured 95.537 %, Maximum response 100 %, Minimum measured 29.329 %, R squared 0.973) is above 20 µM; with SARS-CoV-2 [1] (Severe acute respiratory syndrome coronavirus 2, HeLa-ACE2, Baseline response 0 %, Hill slope -1.195, Maximum measured 100.014 %, Maximum response 100 %, Minimum measured 14.25 %, R squared 0.982), above 20 µM; in the assay on SARS-CoV-2 [2] (Severe acute respiratory syndrome coronavirus 2, Pneumocyte, Baseline response 0 %, EC90 CI (lower) 1.051 uM, EC90 CI (upper) 45.178 uM, Hill slope -2.659, Maximum measured 160.084 %, Maximum response 100 %, Minimum measured 9.251 %, R squared 0.626), 36 µM.

For the compound `CCNC(=O)c1cc2c(N[C@@H](c3ccc4c(c3)OCCO4)C(C)C)ncnc2[nH]1`, the EC50 with SARS-CoV-2 [1] (setting [3]) is above 20 µM; in the assay with SARS-CoV-2 [2] (setting [4]) it was 41.1 µM. Further, the EC90 is above 20 µM in the assay on SARS-CoV-2 [1] (Severe acute respiratory syndrome coronavirus 2, HeLa-ACE2, Baseline response 0 %, Hill slope -1.909, Maximum measured 113.12 %, Maximum response 100 %, Minimum measured 80.543 %, R squared 0.285); above 20 µM with SARS-CoV-2 [1] (Severe acute respiratory syndrome coronavirus 2, HeLa-ACE2, Maximum measured 94.861 %, Minimum measured 54.623 %); above 20 µM in the assay with SARS-CoV-2 [1] (Severe acute respiratory syndrome coronavirus 2, HeLa-ACE2, Maximum measured 122.873 %, Minimum measured 70.184 %); above 50 µM with SARS-CoV-2 [2] (Severe acute respiratory syndrome coronavirus 2, Pneumocyte, Baseline response 0 %, Hill slope -8.576, Maximum measured 136.848 %, Maximum response 100 %, Minimum measured 15.577 %, R squared 0.308).

In the case of `CC(C)[C@@H](Nc1ncnc2[nH]c(-c3cnn(C)c3C#N)cc12)c1ccc2c(c1)OCCO2`, the EC90 with SARS-CoV-2 [1] (Baseline response 0 %, EC90 CI (lower) 0.491 uM, EC90 CI (upper) 1.004 uM, Hill slope -2.446, Maximum measured 109.522 %, Maximum response 100 %, Minimum measured 0 %, R squared 0.979) is 4.23 µM; with SARS-CoV-2 [1] (Severe acute respiratory syndrome coronavirus 2, HeLa-ACE2, Baseline response 0 %, EC90 CI (lower) 0.194 uM, EC90 CI (upper) 2.46 uM, Hill slope -2.403, Maximum measured 109.522 %, Maximum response 100 %, Minimum measured 3.811 %, R squared 0.7), 4.31 µM; with SARS-CoV-2 [2] (Severe acute respiratory syndrome coronavirus 2, Pneumocyte, Baseline response 0 %, Hill slope -15.978, Maximum measured 108.15 %, Maximum response 100 %, Minimum measured 1.229 %, R squared 0.666), 16.2 µM; with SARS-CoV-2 [2] (Severe acute respiratory syndrome coronavirus 2, Pneumocyte, Baseline response 0 %, EC90 CI (lower) 0 uM, EC90 CI (upper) 0 uM, Hill slope -11.115, Maximum measured 116.315 %, Maximum response 100 %, Minimum measured 8.563 %, R squared 0.796), 6.57 µM. Besides, the half-maximal effective concentration (EC50) with SARS-CoV-2 [1] (setting [3]) is 1.73 µM; with SARS-CoV-2 [1] (hela-ace2) it was 1.72 µM; in the assay with SARS-CoV-2 [2] (pneumocyte), 14.1 µM and 5.39 µM.
